Measurements: BindingDB's records for doi:10.1016/j.bmcl.2004.06.041 (Abbott Laboratories, 2004)
pIC50: −log10 of the molar value.

Molecular target: Vascular endothelial growth factor receptor 2 (Homo sapiens, UniProt P35968)
Assay: Homogeneous Time-resolved Fluorescence (HTRF) Assay
Conditions: pH 7.4; 22 °C
Text: The assay was using baculovirus-expressed recombinant protein kinase and biotinylated poly-Glu-Ala-Tyr substrate.

Chain of Vascular endothelial growth factor receptor 2 (P35968 whole entry): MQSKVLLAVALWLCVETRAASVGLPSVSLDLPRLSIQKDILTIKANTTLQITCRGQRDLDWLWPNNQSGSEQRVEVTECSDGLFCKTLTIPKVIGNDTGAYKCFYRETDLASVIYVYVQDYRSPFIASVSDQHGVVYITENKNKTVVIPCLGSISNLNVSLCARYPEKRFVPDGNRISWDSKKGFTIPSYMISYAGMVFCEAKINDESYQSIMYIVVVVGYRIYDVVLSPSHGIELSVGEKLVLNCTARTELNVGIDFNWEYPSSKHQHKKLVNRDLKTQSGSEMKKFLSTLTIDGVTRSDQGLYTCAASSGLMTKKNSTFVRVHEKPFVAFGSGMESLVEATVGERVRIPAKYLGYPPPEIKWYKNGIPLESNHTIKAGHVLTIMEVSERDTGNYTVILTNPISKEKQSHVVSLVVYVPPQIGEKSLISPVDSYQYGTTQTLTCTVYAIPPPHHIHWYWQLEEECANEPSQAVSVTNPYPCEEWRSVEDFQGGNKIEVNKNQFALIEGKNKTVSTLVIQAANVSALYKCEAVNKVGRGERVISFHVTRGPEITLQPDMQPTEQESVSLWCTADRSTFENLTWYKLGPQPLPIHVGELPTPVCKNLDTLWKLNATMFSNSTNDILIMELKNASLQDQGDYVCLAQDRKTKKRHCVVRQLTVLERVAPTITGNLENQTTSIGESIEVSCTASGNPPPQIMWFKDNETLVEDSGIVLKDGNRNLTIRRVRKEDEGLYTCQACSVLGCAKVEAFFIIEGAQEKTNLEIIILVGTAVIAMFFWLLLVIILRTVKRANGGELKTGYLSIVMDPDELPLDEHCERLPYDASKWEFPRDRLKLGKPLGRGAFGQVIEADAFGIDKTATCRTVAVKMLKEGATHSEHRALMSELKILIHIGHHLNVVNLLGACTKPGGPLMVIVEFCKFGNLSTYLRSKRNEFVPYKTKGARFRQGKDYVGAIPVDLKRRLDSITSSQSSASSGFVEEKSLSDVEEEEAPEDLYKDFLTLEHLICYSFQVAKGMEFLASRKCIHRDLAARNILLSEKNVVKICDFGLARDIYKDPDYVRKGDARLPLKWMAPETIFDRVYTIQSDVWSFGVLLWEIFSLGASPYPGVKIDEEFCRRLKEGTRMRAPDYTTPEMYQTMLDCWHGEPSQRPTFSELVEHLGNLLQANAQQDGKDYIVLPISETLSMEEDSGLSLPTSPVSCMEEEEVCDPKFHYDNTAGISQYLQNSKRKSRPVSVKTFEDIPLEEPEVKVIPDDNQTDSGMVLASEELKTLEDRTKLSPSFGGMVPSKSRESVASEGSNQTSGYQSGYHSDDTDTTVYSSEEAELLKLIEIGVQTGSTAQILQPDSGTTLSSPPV

Row | Structure (SMILES) | pIC50
1 | COc1cc(-c2nn(C3CCC(N4CCN(C)CC4)CC3)c3ncnc(N)c23)ccc1NC(=O)c1ccccc1 [N-(4-{(S)-4-Amino-1-[4-(4-methyl-piperazin-1-yl)-cyclohexyl]-1H-pyrazolo[3,4-d]pyrimidin-3-yl}-2-methoxy-phenyl)-benzamide] | < 4.30
2 | COc1cc(-c2nn(C3CCC(N4CCN(C)CC4)CC3)c3ncnc(N)c23)ccc1NC(=O)Nc1ccccc1 [1-(4-{(S)-4-Amino-1-[4-(4-methyl-piperazin-1-yl)-cyclohexyl]-1H-pyrazolo[3,4-d]pyrimidin-3-yl}-2-methoxy-phenyl)-3-phenyl-urea] | 6.58
